{
  "source": "paper PMC9896891",
  "about": "(International Journal of Biological Macromolecules, 2023)",
  "key": {"[1]": {"target": "T1, SARS-CoV-2 Main protease (M^pro) (Severe acute respiratory syndrome coronavirus 2, UniProt P0DTD1)", "format": "binding"}, "[2]": {"test_system": "SARS-CoV-2", "format": "cell-based"}, "[3]": {"target": "T1, SARS-CoV-2 Main protease (M^pro)", "experiment": "biochemical", "format": "binding"}, "[4]": {"test_system": "SARS-CoV-2", "experiment": "Treatment points", "format": "cell-based", "settings": "Vero cells, 48 h"}, "[5]": {"settings": "screen of 156 drugs and natural compounds"}, "[6]": {"settings": "compound 8, relative to H2–2/8/9"}, "[7]": {"settings": "relative to M^pro alone (53.5 ± 1 °C)"}},
  "note": "Structures can show the parent of a compound that is named as a salt. Where two headings read alike, the source gives them in different places.",
  "data": [
    {"compound": "CCCCc1nc(Cl)c(CO)n1Cc1ccc(-c2ccccc2-c2nn[nH]n2)cc1", "note": "[Compound 3, Losartan potassium]", "values": [
      {"measurement": "Relative STD saturation, H2–7", "setting": "[1]; compound 3, largest STD integral, reference", "value": 100, "unit": "%"},
      {"measurement": "Relative STD saturation, H2–8", "setting": "[1]; compound 3, relative to H2–7", "value": 45.22, "unit": "%"},
      {"measurement": "Relative STD saturation, H2–9", "setting": "[1]; compound 3, relative to H2–7", "value": 42.15, "unit": "%"},
      {"measurement": "Relative STD saturation, H3–10", "setting": "[1]; compound 3, relative to H2–7", "value": 31.49, "unit": "%"},
      {"measurement": "Interaction with M^pro in STD-NMR spectroscopy", "setting": "[1]; [5]", "value": "interacting"},
      {"measurement": "% Reduction in viral plaques", "setting": "[2]; 83 μM, Vero cells", "value": 54.54, "unit": "%"},
      {"measurement": "Kd", "setting": "[3]", "value": "~64", "unit": "µM"}
    ]},
    {"compound": "NC12CC3CC(CC(C3)C1)C2", "note": "[Compound 8, Amantadine hydrochloride]", "values": [
      {"measurement": "Relative STD saturation, H2–2, H2–8, H2–9", "setting": "[1]; compound 8, highest STD integral, reference", "value": 100, "unit": "%"},
      {"measurement": "Relative STD saturation, H2–4, H2–6, H2–10", "setting": "[1]; [6]", "value": "59–64%"},
      {"measurement": "Relative STD saturation, H-3, H-5, H-7", "setting": "[1]; [6]", "value": 78, "unit": "%"},
      {"measurement": "Interaction with M^pro in STD-NMR spectroscopy", "setting": "[1]; [5]", "value": "interacting"},
      {"measurement": "% Reduction in viral plaques", "setting": "[2]; 83 μM, Vero cells", "value": 77.27, "unit": "%"},
      {"measurement": "Modulation of Tm of M^pro", "setting": "[3]; [7]", "value": "+2.9 °C"}
    ]},
    {"compound": "CCN(CC)CCCC(C)Nc1ccnc2cc(Cl)ccc12", "note": "(centres unmarked) [Compound 11, Chloroquine phosphate]", "values": [
      {"measurement": "% Reduction in viral plaques", "setting": "[2]; 41.5 μM, Vero cells", "value": 63.2, "unit": "%"},
      {"measurement": "% Reduction in viral plaques", "setting": "[2]; 83 μM, Vero cells", "value": 100, "unit": "%"}
    ]},
    {"compound": "C[C@@H]1C[C@H]2[C@@H]3CCC4=CC(=O)C=C[C@]4(C)[C@@]3(F)[C@@H](O)C[C@]2(C)[C@@]1(O)C(=O)CO", "note": "[Compound 12, Dexamethasone]", "values": [
      {"measurement": "Relative STD saturation, Ha-6", "setting": "[1]; compound 12, highest STD integral, reference", "value": 100, "unit": "%"},
      {"measurement": "Relative STD saturation, Ha-7", "setting": "[1]; compound 12, relative to Ha-6", "value": 58.8, "unit": "%"},
      {"measurement": "Relative STD saturation, Hb-6", "setting": "[1]; compound 12, relative to Ha-6", "value": 54.8, "unit": "%"},
      {"measurement": "Relative STD saturation, Hb-7", "setting": "[1]; compound 12, relative to Ha-6", "value": 18.77, "unit": "%"},
      {"measurement": "Relative STD saturation, methyl H3–19", "setting": "[1]; compound 12, relative to Ha-6", "value": 4.13, "unit": "%"},
      {"measurement": "% Reduction in viral plaques", "setting": "[2]; 83 μM, Vero cells", "value": 77.27, "unit": "%"},
      {"measurement": "Modulation of Tm of M^pro", "setting": "[3]; [7]", "value": "+2.9 °C"}
    ]},
    {"compound": "COc1ccc2c(c1)[C@]13CCCC[C@@H]1[C@H](C2)N(C)CC3", "note": "[Compound 9, Dextromethorphan]", "values": [
      {"measurement": "Relative STD saturation, 2H-16", "setting": "[1]; compound 9, reference proton", "value": "highest saturation"},
      {"measurement": "Relative STD saturation, H-6", "setting": "[1]; compound 9, relative to 2H-16", "value": 95, "unit": "%"},
      {"measurement": "Relative STD saturation, aromatic H-10", "setting": "[1]; compound 9, relative to 2H-16", "value": 70.6, "unit": "%"},
      {"measurement": "Relative STD saturation, methyl 3H-18", "setting": "[1]; compound 9, relative to 2H-16", "value": 30.8, "unit": "%"},
      {"measurement": "Relative STD saturation, methyl 3H-20", "setting": "[1]; compound 9, relative to 2H-16", "value": 12.8, "unit": "%"},
      {"measurement": "Interaction with M^pro in STD-NMR spectroscopy", "setting": "[1]; [5]", "value": "interacting"},
      {"measurement": "Therapeutic Effect, Log10 of Fold Change", "setting": "[4]; 83 μM", "value": 2.11},
      {"measurement": "% Reduction in viral plaques", "setting": "[2]; 83 μM, Vero cells", "value": "81–88%"}
    ]},
    {"compound": "CCC(CC)COC(=O)[C@H](C)N[P@](=O)(OC[C@H]1O[C@@](C#N)(c2ccc3c(N)ncnn23)[C@H](O)[C@@H]1O)Oc1ccccc1", "note": "[Compound 13, Remdesivir]", "values": [
      {"measurement": "Relative STD saturation, H-37", "setting": "[1]; compound 13, highest STD integral, reference", "value": 100, "unit": "%"},
      {"measurement": "Relative STD saturation, H-18/H-22", "setting": "[1]; compound 13, relative to H-37", "value": 64.95, "unit": "%"},
      {"measurement": "Relative STD saturation, H-19/H-21", "setting": "[1]; compound 13, relative to H-37", "value": 69.88, "unit": "%"},
      {"measurement": "Relative STD saturation, H-20", "setting": "[1]; compound 13, relative to H-37", "value": 55.82, "unit": "%"},
      {"measurement": "Relative STD saturation, H-34", "setting": "[1]; compound 13, relative to H-37", "value": 78.86, "unit": "%"},
      {"measurement": "Relative STD saturation, H-35", "setting": "[1]; compound 13, relative to H-37", "value": 80.79, "unit": "%"},
      {"measurement": "% Reduction in viral plaques", "setting": "[2]; 83 μM, Vero cells", "value": "81–88%"}
    ]},
    {"compound": "Cc1cccc(Nc2ccccc2C(=O)O)c1C", "note": "[Compound 2, Mefenamic acid]", "values": [
      {"measurement": "Relative STD saturation, H3–16", "setting": "[1]; compound 2, largest STD integral, reference", "value": 100, "unit": "%"},
      {"measurement": "Relative STD saturation, H3–15", "setting": "[1]; compound 2, relative to H3–16", "value": 90.7, "unit": "%"},
      {"measurement": "Interaction with M^pro in STD-NMR spectroscopy", "setting": "[1]; [5]", "value": "interacting"},
      {"measurement": "% Reduction in viral plaques", "setting": "[2]; 83 μM, Vero cells", "value": "81–88%"},
      {"measurement": "Kd", "setting": "[3]", "value": "~15", "unit": "µM"},
      {"measurement": "Modulation of Tm of M^pro", "setting": "[3]; [7]", "value": "+2.9 °C"}
    ]},
    {"compound": "CC(C(=O)O)c1ccc(-c2ccccc2)c(F)c1", "note": "(centres unmarked) [Compound 7, Flurbiprofen]", "values": [
      {"measurement": "Relative STD saturation, methyl H-1", "setting": "[1]; compound 7, highest integral, reference", "value": 100, "unit": "%"},
      {"measurement": "Relative STD saturation, H-2", "setting": "[1]; compound 7, relative to H-1", "value": 44.10, "unit": "%"},
      {"measurement": "Interaction with M^pro in STD-NMR spectroscopy", "setting": "[1]; [5]", "value": "interacting"},
      {"measurement": "% Reduction in viral plaques", "setting": "[2]; 83 μM, Vero cells", "value": 59.09, "unit": "%"},
      {"measurement": "Kd", "setting": "[3]", "value": "~66", "unit": "µM"}
    ]},
    {"compound": "COc1ccc([C@@H]2Sc3ccccc3N(CCN(C)C)C(=O)[C@@H]2OC(C)=O)cc1", "note": "[Compound 1, Diltiazem hydrochloride]", "values": [
      {"measurement": "Relative STD saturation, C-4 methyl protons (H3–4)", "setting": "[1]; compound 1, largest STD integral, reference", "value": 100, "unit": "%"},
      {"measurement": "Relative STD saturation, H3–28/H3–29", "setting": "[1]; compound 1, relative to H3–4", "value": 31.99, "unit": "%"},
      {"measurement": "Interaction with M^pro in STD-NMR spectroscopy", "setting": "[1]; [5]", "value": "interacting"},
      {"measurement": "Therapeutic Effect, Log10 of Fold Change", "setting": "[4]; 42.5 μM", "value": 2.00},
      {"measurement": "Therapeutic Effect, Log10 of Fold Change", "setting": "[4]; 83 μM", "value": 2.02},
      {"measurement": "% Reduction in viral plaques", "setting": "[2]; 83 μM, Vero cells", "value": "81–88%"},
      {"measurement": "Kd", "setting": "[3]", "value": "~44", "unit": "µM"}
    ]},
    {"compound": "Cc1cccc(C)c1OCC(C)N", "note": "(centres unmarked) [Compound 4, Mexiletine hydrochloride]", "values": [
      {"measurement": "Interaction with M^pro in STD-NMR spectroscopy", "setting": "[1]", "value": "interacting"},
      {"measurement": "Relative STD saturation, H-6/H-8", "setting": "[1]", "value": 86.87, "unit": "%"},
      {"measurement": "Relative STD saturation, aromatic H-7", "setting": "[1]", "value": 100, "unit": "%"},
      {"measurement": "Relative STD saturation, methyl H-3", "setting": "[1]", "value": 20, "unit": "%"},
      {"measurement": "% Reduction in viral plaques", "setting": "[2]", "value": 75.5, "unit": "%"},
      {"measurement": "Kd", "setting": "[3]", "value": "~21", "unit": "µM"},
      {"measurement": "Modulation of Tm of M^pro", "setting": "[3]", "value": "+2.9 °C"}
    ]}
  ]
}
